Structures can show the parent of a compound that is named as a salt. Where two headings read alike, the source gives them in different places.
Key:
E. coli J3272 Tet D = assay: microbe, parasite or virus in culture; assay type: cell-based; settings: monohydrochloride
E. faecalis ATCC 29212 = assay: MIC, agar dilution; assay type: cell-based; settings: E. faecalis ATCC 29212; monohydrochloride
S. aureus UBMS 90-3 = assay: MIC, agar dilution; assay type: cell-based; settings: S. aureus UBMS 90-3; monohydrochloride
E. coli ATCC 25922 = assay: MIC, agar dilution; assay type: cell-based
E. coli PRP1 Tet A = assay: microbe, parasite or virus in culture; assay type: cell-based
S. aureus IVES 1983 = assay: MIC, agar dilution; assay type: cell-based
[1] = system: S. aureus UBMS 88-7 Tet K; assay: microbe, parasite or virus in culture; assay type: cell-based
S. aureus NEMC 8769 = assay: MIC, agar dilution; assay type: cell-based
[2] = system: S. hemolyticus AVHAH 88-3; assay: MIC, agar dilution; assay type: cell-based
[3] = system: X. maltophilia NEMC 87210; assay: MIC, agar dilution; assay type: cell-based
E. coli UBMS 90-5 = assay: microbe, parasite or virus in culture; assay type: cell-based; settings: E. coli UBMS 90-5
E. coli #311 (MP) = assay: MIC, agar dilution; assay type: cell-based; settings: Escherichia coli, 18 h
S. aureus ROSE (MP) = assay: MIC, agar dilution; assay type: cell-based
[4] = system: Ps. aeruginosa ATCC 27853; assay: MIC, agar dilution; assay type: cell-based; settings: Ps. aeruginosa ATCC 27853
S. aureus IVES 2943 = assay: MIC, agar dilution; assay type: cell-based
E. coli J3272 Tet C = assay: microbe, parasite or virus in culture; assay type: cell-based
[5] = system: Staphylococcus aureus strain Smith (tetracycline sensitive); assay: Acute lethal infection in mice, S. aureus Smith; assay type: in vivo; settings: for ED50: mice, S. aureus Smith (Sens), 7 day survival; for in vivo activity (in words): tested intravenously against the minocycline sensitive organism S. aureus Smith
E. coli UBMS 89-1 Tet M = assay: microbe, parasite or virus in culture; assay type: cell-based
S. marcescens FPOR 8733 = assay: MIC, agar dilution; assay type: cell-based
[6] = system: S. aureus UBMS 90-1 Tet M; assay: microbe, parasite or virus in culture; assay type: cell-based; settings: Staphylococcus aureus, UBMS901TETM, 18 h
E. coli UBMS 88-1 Tet B = assay: microbe, parasite or virus in culture; assay type: cell-based; settings: Escherichia coli, UBMS881TETB, 18 h
[7] = system: S. aureus UBMS 90-2 Tet M; assay: microbe, parasite or virus in culture; assay type: cell-based; settings: Staphylococcus aureus, UBMS902TETM, 18 h
E. coli UBMS 90-4 Tet M = assay: microbe, parasite or virus in culture; assay type: cell-based; settings: Escherichia coli, UBMS904TETM, 18 h
[8] = system: E. coli UBMS 89-2 Tet sens.; assay: MIC, agar dilution; assay type: cell-based; settings: Escherichia coli, 18 h
E. coli J2175 = assay: MIC, agar dilution; assay type: cell-based; settings: Escherichia coli, 18 h, read-out: MIC
[9] = system: E. coli MC 4100 TNIOC Tet B; assay: microbe, parasite or virus in culture; assay type: cell-based; settings: Escherichia coli, 18 h
[10] = system: S. aureus UBMS 88-5 Tet M; assay: microbe, parasite or virus in culture; assay type: cell-based; settings: Staphylococcus aureus, UBMS885TETM, 18 h
S. aureus UBMS 88-4 = assay: MIC, agar dilution; assay type: cell-based; settings: Staphylococcus aureus, UBMS884, 18 h
S. aureus SMITH (MP) = assay: MIC, agar dilution; assay type: cell-based; settings: Staphylococcus aureus, 18 h
Enterococcus 12201 = assay: MIC, agar dilution; assay type: cell-based; settings: Enterococcus, 12201, 18 h
[11] = Escherichia coli, PRP1TETA, 18 h
[12] = Staphylococcus aureus, IVES1983, 18 h
[13] = Staphylococcus aureus, UBMS887TETK, 18 h
[14] = Escherichia coli, UBMS905, 18 h, read-out: MIC
[15] = Staphylococcus aureus, 18 h, read-out: MIC
[16] = Pseudomonas aeruginosa, ATCC27853, 18 h, read-out: MIC
[17] = Escherichia coli, J3272TETC, 18 h
[18] = Serratia marcescens, FPOR8733, 18 h, read-out: MIC

Row | SMILES | MIC (E. coli #311 (MP)) [µg/mL] | in vivo activity (in words) [5] | MIC [6] [µg/mL] | MIC (E. coli PRP1 Tet A; [11]) [µg/mL] | MIC (S. aureus IVES 1983; [12]) [µg/mL] | MIC [1, 13] [µg/mL] | MIC (E. coli UBMS 88-1 Tet B) [µg/mL] | MIC [7] [µg/mL] | MIC (E. coli UBMS 90-4 Tet M) [µg/mL] | MIC (E. coli UBMS 90-5; [14]) [µg/mL] | MIC (S. aureus ROSE (MP); [15]) [µg/mL] | MIC [8] [µg/mL] | MIC [4, 16] [µg/mL] | MIC (E. coli J2175) [µg/mL] | MIC (E. coli J3272 Tet C; [17]) [µg/mL] | MIC [9] [µg/mL] | MIC (S. marcescens FPOR 8733; [18]) [µg/mL] | also measured
1 | CN(C)CC(=O)Nc1ccc2c(c1O)C(=O)C1=C(O)[C@]3(O)C(=O)C(C(N)=O)=C(O)[C@@H](N(C)C)C3CC1C2 (stereo partly drawn) [DD, [4S-(4alpha,12aalpha)]-4-(Dimethylamino)-9-[[(dimethylamino)acetyl]amino]-1,4,4a,5,5a,6,11,12a-octahydro-3,10,12,12a-tetrahydroxy-1,11-dioxo-2-naphthacenecarboxamide monohydrochloride] | 0.25 | very good in vivo activity |  |  |  |  |  |  |  |  |  |  |  |  |  |  |  | MIC (E. coli J3272 Tet D): 0.25 µg/mL; MIC (E. faecalis ATCC 29212): 0.06 µg/mL; MIC (S. aureus UBMS 90-3): 0.06 µg/mL; MIC (E. coli ATCC 25922; monohydrochloride): 0.25 µg/mL; MIC (E. coli PRP1 Tet A; monohydrochloride): 1 µg/mL; MIC (S. aureus IVES 1983; S. aureus IVES 1983, monohydrochloride): 1 µg/mL; MIC ([1]; monohydrochloride): 1 µg/mL; MIC (S. aureus NEMC 8769; monohydrochloride): 0.03 µg/mL; MIC ([2]; S. hemolyticus AVHAH 88-3, monohydrochloride): 0.25 µg/mL; MIC ([3]; X. maltophilia NEMC 87210, monohydrochloride): 2 µg/mL; MIC (E. coli UBMS 90-5): 0.25 µg/mL; MIC (S. aureus ROSE (MP); monohydrochloride): 4 µg/mL; MIC ([4]; monohydrochloride): 8 µg/mL; MIC (S. aureus IVES 2943; S. aureus IVES 2943, monohydrochloride): 1 µg/mL; MIC (E. coli J3272 Tet C; monohydrochloride): 1 µg/mL; ED50 ([5]; Intraveneous, monohydrochloride, 10080 min): 0.67 mg/kg; ED50 ([5]; Oral, monohydrochloride, 10080 min): 12 mg/kg; MIC (E. coli UBMS 89-1 Tet M; monohydrochloride): 0.5 µg/mL; MIC (S. marcescens FPOR 8733): 4 µg/mL
2 | CN(C)[C@@H]1C(O)=C(C(N)=O)C(=O)[C@@]2(O)C(O)=C3C(=O)c4c(ccc(NC(=O)CN5CCCC5)c4O)CC3CC12 (stereo partly drawn) [D, [7S-(7alpha,10aalpha)]-N-[9-(Aminocarbonyl)-7-(dimethylamino)-5,5a,6,6a,7-10,10a,12-octahydro-1,8,10a,11-tetrahydroxy-10,12-dioxo-2-naphthacenyl]-1-pyrrolidineacetamide dihydrochloride] | 0.25 | very good in vivo activity | 0.25 | 0.25 | 1 | 0.5 | 0.25 | 0.25 | 0.25 | 0.25 | 2 | 0.25 | 16 | 0.25 | 0.25 | 0.25 | 2 | MIC (S. aureus NEMC 8769; Staphylococcus aureus, NEMC8769, 18 h): 0.06 µg/mL; MIC ([2]; Streptococcus pyogenes, AVHAH883, 18 h): 0.25 µg/mL; MIC ([3]; Stenotrophomonas maltophilia, NEMC87210, 18 h): 1 µg/mL; MIC (S. aureus IVES 2943; Staphylococcus aureus, IVES2943, 18 h): 1 µg/mL; ED50 ([5]; Staphylococcus aureus, iv, 168 h, Intraveneous, read-out: ED50): 1 to 2 mg/kg; ED50 ([5]; Staphylococcus aureus, po, 168 h, Oral, read-out: ED50): > 16 mg/kg
3 | CC(C)CNCC(=O)Nc1ccc2c(c1O)C(=O)C1=C(O)[C@]3(O)C(=O)C(C(N)=O)=C(O)[C@@H](N(C)C)C3CC1C2 (stereo partly drawn) [M, [4S-(4alpha,12aalpha)]-4-(Dimethylamino)-1,4,4a,5,5a,6,11,12a-octahydro-3,10,12,12a-tetrahydroxy-9-[[[(2-methylpropyl)amino]acetyl]amino]-1,11-dioxo-2-naphthacenecarboxamide dihydrochloride] | 1 |  | 0.5 | 1 | 2 | 2 | 1 | 0.5 | 0.5 | 1 | 8 | 1 | 32 | 1 | 1 | 1 | 8 | MIC [10]: 0.5 µg/mL; MIC (S. aureus UBMS 88-4): 0.5 µg/mL; MIC (E. coli ATCC 25922; Escherichia coli, ATCC25922, 18 h): 0.5 µg/mL; MIC (S. aureus SMITH (MP)): 0.5 µg/mL; MIC (S. aureus NEMC 8769; Staphylococcus aureus, NEMC8769, 18 h, read-out: MIC): 8 µg/mL; MIC ([2]; Streptococcus pyogenes, AVHAH883, 18 h, S. hemolyticus AVHAH 88-3, read-out: MIC): 2 µg/mL; MIC ([3]; Stenotrophomonas maltophilia, NEMC87210, 18 h, X. maltophilia NEMC 87210, read-out: MIC): 2 µg/mL; MIC (Enterococcus 12201): 0.5 µg/mL; MIC (S. aureus IVES 2943; Staphylococcus aureus, IVES2943, 18 h, S. aureus IVES 2943, read-out: MIC): 4 µg/mL; MIC (E. coli UBMS 89-1 Tet M; Escherichia coli, UBMS891TETM, 18 h): 0.5 µg/mL

Reference: US5567692A, “9-[(substituted glycyl) amido)]-6-demethyl-6-deoxytetracyclines” (priority 1995, dated 1996)
